Measurements as given in ChEMBL document CHEMBL3596165, “Synthesis, structure elucidation and identification of antiproliferative activities of a novel class of thiophene bioisosteres bearing the privileged 7,8-dihydroimidazo[2,1-c][1,2,4]triazin-4(6H)-one scaffold” (Bioorg Med Chem, 2015).
Active and inactive are the calls of the source. The rule behind the calls is not given here.

Key:
[1] = tested on: A549; assay: Antiproliferative activity against human A549 cells at 50 ug/ml after 24 hrs by BrdUrd incorporation assay; format: functional; conditions: A549, 24 h, read-out: GI
[2] = tested on: Vero; assay: Induction of apoptosis in African green monkey Vero cells at 10 ug/ml after 72 hrs by fluorescence microscopic analysis; format: functional, cell-based; conditions: Chlorocebus sabaeus
[3] = tested on: HeLa; assay: Induction of apoptosis in human HeLa cells at 10 ug/ml after 72 hrs by fluorescence microscopic analysis; format: functional
[4] = tested on: TOV112D; assay: Antiproliferative activity against human TOV112D cells after 72 hrs by BrdUrd incorporation assay; format: functional, cell-based
[5] = tested on: TOV112D; assay: Antiproliferative activity against human TOV112D cells at 50 ug/ml after 24 hrs by BrdUrd incorporation assay; format: functional; conditions: read-out: GI
[6] = tested on: HeLa; assay: Antiproliferative activity against human HeLa cells after 24 hrs by BrdUrd incorporation assay; format: functional, cell-based
[7] = tested on: A549; assay: Antiproliferative activity against human A549 cells at 50 ug/ml after 48 hrs by BrdUrd incorporation assay; format: functional; conditions: A549, 48 h, read-out: GI
[8] = tested on: A549; assay: Antiproliferative activity against human A549 cells after 72 hrs by BrdUrd incorporation assay; format: functional, cell-based; conditions: A549, 72 h
[9] = tested on: TOV112D; assay: Antiproliferative activity against human TOV112D cells after 24 hrs by BrdUrd incorporation assay; format: functional, cell-based
[10] = tested on: Vero; assay: Antiproliferative activity against African green monkey Vero cells after 24 hrs by BrdUrd incorporation assay; format: cell-based; conditions: chlorocebus sabaeus
[11] = tested on: HeLa; assay: Induction of necrosis in human HeLa cells at 10 ug/ml after 72 hrs by fluorescence microscopic analysis; format: functional
[12] = Antiproliferative activity against African green monkey Vero cells at 50 ug/ml after 72 hrs by BrdUrd incorporation assay; format: cell-based; conditions: chlorocebus sabaeus, read-out: GI
[13] = tested on: T47D; assay: Antiproliferative activity against human T47D cells after 72 hrs by BrdUrd incorporation assay; format: functional, cell-based
[14] = tested on: Vero; assay: Antiproliferative activity against African green monkey Vero cells after 48 hrs by BrdUrd incorporation assay; format: cell-based; conditions: Chlorocebus sabaeus
[15] = tested on: TOV112D; assay: Antiproliferative activity against human TOV112D cells at 50 ug/ml after 48 hrs by BrdUrd incorporation assay; format: functional; conditions: read-out: GI
[16] = tested on: A549; assay: Antiproliferative activity against human A549 cells after 48 hrs by BrdUrd incorporation assay; format: functional, cell-based; conditions: A549, 48 h
[17] = tested on: T47D; assay: Antiproliferative activity against human T47D cells at 50 ug/ml after 24 hrs by BrdUrd incorporation assay; format: functional; conditions: read-out: GI
[18] = Antiproliferative activity against African green monkey Vero cells at 50 ug/ml after 48 hrs by BrdUrd incorporation assay; format: cell-based; conditions: chlorocebus sabaeus, read-out: GI
[19] = tested on: T47D; assay: Induction of necrosis in human T47D cells at 10 ug/ml after 72 hrs by fluorescence microscopic analysis; format: functional, cell-based
[20] = tested on: HeLa; assay: Antiproliferative activity against human HeLa cells after 48 hrs by BrdUrd incorporation assay; format: functional, cell-based
[21] = tested on: Vero; assay: Antiproliferative activity against African green monkey Vero cells after 72 hrs by BrdUrd incorporation assay; format: cell-based; conditions: Chlorocebus sabaeus
[22] = tested on: HeLa; assay: Antiproliferative activity against human HeLa cells at 50 ug/ml after 72 hrs by BrdUrd incorporation assay; format: functional; conditions: read-out: GI
[23] = tested on: HeLa; assay: Antiproliferative activity against human HeLa cells after 72 hrs by BrdUrd incorporation assay; format: functional, cell-based
[24] = tested on: T47D; assay: Antiproliferative activity against human T47D cells at 50 ug/ml after 72 hrs by BrdUrd incorporation assay; format: functional; conditions: read-out: GI
[25] = tested on: A549; assay: Antiproliferative activity against human A549 cells at 50 ug/ml after 72 hrs by BrdUrd incorporation assay; format: functional; conditions: A549, 72 h, read-out: GI
[26] = tested on: A549; assay: Antiproliferative activity against human A549 cells after 24 hrs by BrdUrd incorporation assay; format: functional, cell-based; conditions: A549, 24 h
[27] = tested on: Vero; assay: Antiproliferative activity against African green monkey Vero cells at 50 ug/ml after 24 hrs by BrdUrd incorporation assay; format: cell-based; conditions: chlorocebus sabaeus
[28] = tested on: TOV112D; assay: Antiproliferative activity against human TOV112D cells after 48 hrs by BrdUrd incorporation assay; format: functional, cell-based
[29] = tested on: T47D; assay: Antiproliferative activity against human T47D cells at 50 ug/ml after 48 hrs by BrdUrd incorporation assay; format: functional; conditions: read-out: GI
[30] = tested on: HeLa; assay: Antiproliferative activity against human HeLa cells at 50 ug/ml after 24 hrs by BrdUrd incorporation assay; format: functional; conditions: read-out: GI
[31] = tested on: T47D; assay: Antiproliferative activity against human T47D cells after 24 hrs by BrdUrd incorporation assay; format: functional, cell-based
[32] = tested on: T47D; assay: Induction of apoptosis in human T47D cells at 10 ug/ml after 72 hrs by fluorescence microscopic analysis; format: functional, cell-based
[33] = tested on: HeLa; assay: Antiproliferative activity against human HeLa cells at 50 ug/ml after 48 hrs by BrdUrd incorporation assay; format: functional; conditions: read-out: GI
[34] = tested on: Vero; assay: Induction of necrosis in African green monkey Vero cells at 10 ug/ml after 72 hrs by fluorescence microscopic analysis; format: functional, cell-based; conditions: Chlorocebus sabaeus
[35] = tested on: T47D; assay: Antiproliferative activity against human T47D cells after 48 hrs by BrdUrd incorporation assay; format: functional, cell-based
[36] = tested on: TOV112D; assay: Antiproliferative activity against human TOV112D cells at 50 ug/ml after 72 hrs by BrdUrd incorporation assay; format: functional; conditions: read-out: GI
[37] = tested on: Vero; assay: Antiproliferative activity against African green monkey Vero cells at 100 ug/ml after 24 hrs by BrdUrd incorporation assay; format: cell-based; conditions: chlorocebus sabaeus
[38] = tested on: T47D; assay: Antiproliferative activity against human T47D cells at 100 ug/ml after 24 hrs by BrdUrd incorporation assay; format: functional; conditions: read-out: GI
[39] = tested on: HeLa; assay: Antiproliferative activity against human HeLa cells at 100 ug/ml after 72 hrs by BrdUrd incorporation assay; format: functional; conditions: read-out: GI
[40] = tested on: T47D; assay: Antiproliferative activity against human T47D cells at 100 ug/ml after 48 hrs by BrdUrd incorporation assay; format: functional; conditions: read-out: GI
[41] = Antiproliferative activity against African green monkey Vero cells at 100 ug/ml after 72 hrs by BrdUrd incorporation assay; format: cell-based; conditions: chlorocebus sabaeus, read-out: GI
[42] = tested on: A549; assay: Antiproliferative activity against human A549 cells at 100 ug/ml after 48 hrs by BrdUrd incorporation assay; format: functional; conditions: A549, 48 h, read-out: GI
[43] = Antiproliferative activity against African green monkey Vero cells at 100 ug/ml after 48 hrs by BrdUrd incorporation assay; format: cell-based; conditions: chlorocebus sabaeus, read-out: GI
[44] = tested on: A549; assay: Antiproliferative activity against human A549 cells at 100 ug/ml after 24 hrs by BrdUrd incorporation assay; format: functional; conditions: A549, 24 h, read-out: GI
[45] = tested on: T47D; assay: Antiproliferative activity against human T47D cells at 100 ug/ml after 72 hrs by BrdUrd incorporation assay; format: functional; conditions: read-out: GI
[46] = tested on: A549; assay: Antiproliferative activity against human A549 cells at 100 ug/ml after 72 hrs by BrdUrd incorporation assay; format: functional; conditions: A549, 72 h, read-out: GI
[47] = tested on: HeLa; assay: Antiproliferative activity against human HeLa cells at 100 ug/ml after 24 hrs by BrdUrd incorporation assay; format: functional; conditions: read-out: GI
[48] = tested on: HeLa; assay: Antiproliferative activity against human HeLa cells at 100 ug/ml after 48 hrs by BrdUrd incorporation assay; format: functional; conditions: read-out: GI

Row | SMILES | inhibition of growth at 50 µg/mL [1] | IC50 [4] | inhibition of growth at 50 µg/mL [5] | IC50 [6] | inhibition of growth at 50 µg/mL [7] | IC50 [8] | IC50 [9] | IC50 [10] | inhibition at 72 h, 50 ug/ml [12] | IC50 [13] | IC50 [14] | inhibition of growth at 50 µg/mL [15] | IC50 [16] | inhibition of growth at 50 µg/mL [17] | inhibition at 48 h, 50 ug/ml [18] | IC50 [20] | IC50 [21] | inhibition of growth at 50 µg/mL [22] | IC50 [23] | inhibition of growth at 50 µg/mL [24] | other results
1 | O=c1c(-c2cccs2)nnc2n1CCN2c1ccc(Cl)c(Cl)c1 | 90% | 70 µM | 90% | 140 µM | 100% | 70 µM | 80 µM | > 140 µM | 90% | 70 µM | 140 µM | 100% | 70 µM | 90% | 50% | 80 µM | 80 µM | 100% | 70 µM | 100% | Activity [2]: Active; Activity [3]: 5%; Activity [11]: 95%; Activity [19]: Active; inhibition of growth at 50 µg/mL [25]: 100%; IC50 [26]: 80 µM; growth inhibition (GI) [27]: 25%; IC50 [28]: 70 µM; inhibition of growth at 50 µg/mL [29]: 100%; inhibition of growth at 50 µg/mL [30]: 50%; IC50 [31]: 80 µM; Activity [32]: Active; inhibition of growth at 50 µg/mL [33]: 90%; Activity [34]: Active; IC50 [35]: 70 µM; inhibition of growth at 50 µg/mL [36]: 100%
2 | Nc1nc2[nH]cc(CCc3ccc(C(=O)N[C@@H](CCC(=O)O)C(=O)O)cc3)c2c(=O)[nH]1 [PEMETREXED] |  |  |  |  |  |  |  |  |  |  |  |  |  |  |  |  |  |  |  |  | growth inhibition (GI) [37]: 5%; inhibition of growth at 100 µg/mL [38]: 10%; inhibition of growth at 100 µg/mL [39]: 20%; inhibition of growth at 100 µg/mL [40]: 20%; inhibition at 72 h, 100 ug/ml [41]: 20%; inhibition of growth at 100 µg/mL [42]: 30%; inhibition at 48 h, 100 ug/ml [43]: 10%; inhibition of growth at 100 µg/mL [44]: 10%; inhibition of growth at 100 µg/mL [45]: 30%; inhibition of growth at 100 µg/mL [46]: 50%; inhibition of growth at 100 µg/mL [47]: 5%; inhibition of growth at 100 µg/mL [48]: 10%
3 | Cc1cccc(N2CCn3c2nnc(-c2cccs2)c3=O)c1C | 45% | 80 µM | 40% | 150 µM | 60% | 90 µM | > 150 µM | > 150 µM | 90% | 80 µM | 140 µM | 75% | 130 µM | 90% | 55% | 120 µM | 90 µM | 75% | 100 µM | 100% | inhibition of growth at 50 µg/mL [25]: 90%; IC50 [26]: > 150 µM; growth inhibition (GI) [27]: 25%; IC50 [28]: 100 µM; inhibition of growth at 50 µg/mL [29]: 100%; inhibition of growth at 50 µg/mL [30]: 50%; IC50 [31]: 90 µM; inhibition of growth at 50 µg/mL [33]: 65%; IC50 [35]: 80 µM; inhibition of growth at 50 µg/mL [36]: 95%
4 | O=c1c(-c2cccs2)nnc2n1CCN2c1ccccc1Cl | 75% | 80 µM | 80% | 150 µM | 95% | 80 µM | 90 µM | 150 µM | 75% | 80 µM | 130 µM | 95% | 80 µM | 95% | 60% | 90 µM | 100 µM | 90% | 80 µM | 100% | inhibition of growth at 50 µg/mL [25]: 95%; IC50 [26]: 100 µM; growth inhibition (GI) [27]: 50%; IC50 [28]: 80 µM; inhibition of growth at 50 µg/mL [29]: 100%; inhibition of growth at 50 µg/mL [30]: 50%; IC50 [31]: 80 µM; inhibition of growth at 50 µg/mL [33]: 80%; IC50 [35]: 80 µM; inhibition of growth at 50 µg/mL [36]: 100%
5 | O=c1c(-c2cccs2)nnc2n1CCN2c1ccccc1 | 80% | 80 µM | 90% | 120 µM | 90% | 80 µM | 90 µM | 170 µM | 90% | 80 µM | 110 µM | 100% | 90 µM | 95% | 75% | 90 µM | 90 µM | 100% | 80 µM | 100% | inhibition of growth at 50 µg/mL [25]: 100%; IC50 [26]: 110 µM; growth inhibition (GI) [27]: 50%; IC50 [28]: 80 µM; inhibition of growth at 50 µg/mL [29]: 100%; inhibition of growth at 50 µg/mL [30]: 70%; IC50 [31]: 90 µM; inhibition of growth at 50 µg/mL [33]: 100%; IC50 [35]: 90 µM; inhibition of growth at 50 µg/mL [36]: 100%
